Series [1] deals with MDR1 gene product transport enzyme (P-gp) in CR1R12 cell membranes (Cricetulus griseus, UniProt P21448). The series is described as follows: P-gp-mediated ATP hydrolysis (phosphate release) assay with CR1R12 membrane microsomes. Type of series: biochemical, rodent. From the text:
ATP hydrolysis as nmol/min/mg is plotted against SCH66336 concentration.
The second Example monitored the consumption of ATP, a high-energy biological energy source required for transporter enzyme function. ATP is converted to two other chemicals—ADP and inorganic phosphate—during the P-gp mediated transport porcess.
The method was modified to be carried out in a 96-well microplate.
CR1R12 cell membranes enriched with the MDR1 gene product transport enzyme were used for preparation of membrane microsomes. Cells were washed with complete Hanks' buffer before being resuspended in 10 ml lysis buffer (Tris-25 HCl, 50 mM; mannitol, 50 mM; EGTA, 2 mM; and dithiothreitol, 2 mM; pH 7.0 at 25° C.) containing protease inhibitors (phenylmethylsulfonyl fluoride, 1 mM; aprotinin, 10 μg/ml; leupeptin, 10 μg/ml). All subsequent steps were performed at 4° C. The cells were lysed by nitrogen cavitation (Parr Instrument Co., Moline, Ill.) at 500 psi for 15 min twice. Nuclei and mitochondria were sedimented by centrifugation at 4000×g for 10 min. The microsomal membrane fraction was then sedimented by centrifugation at 100,000×g for 60 min. […] Aliquots of membrane microsomes were rapidly frozen and stored at −80 ° C. until analysis.
The microsomes were thawed on ice prior to diluting to 3.5 μg protein per well in ice-cold ATPase buffer (sodium ATP, 3 mM; KCl, 50 mM; MgSO4, 10 mM; dithiothreitol, 3 mM; Tris-HCl, 50 mM; pH 7.0) containing 0.5 mM EGTA (to inhibit Ca-ATPase), 0.5 mM ouabain (to inhibit the Na/K-ATPase), and 3 mM sodium azide (to inhibit the mitochondrial ATPase). The total incubation volume including the various inhibitors was 100 μl. The incubation reaction was initiated by transferring the plate from ice to 37° C. and incubating for 30 min; the reaction was terminated by the addition of 50 μl 12% SDS solution at room temperature, followed by the addition of 50 μl of a mixture solution of (equal volumes) 18% fresh ascorbic acid in 1N HCl and 3% ammonium molybdate in 1 N HCl. After 4 min, 100 μl of a solution of 2% sodium citrate and 2% sodium meta-arsenite in 2% acetic acid was added to fix the color formation. […] The respective values for background with ATPase assay buffer alone were obtained in parallel and subtracted from the values for experimental samples.

For series [2], the target named is T1, gene product of human MDR1 (P-gp) in NIH 3T3 G185 cells (Homo sapiens, UniProt P08183). The series can be described thus: cell-based.
T1 sequence (P08183 whole entry): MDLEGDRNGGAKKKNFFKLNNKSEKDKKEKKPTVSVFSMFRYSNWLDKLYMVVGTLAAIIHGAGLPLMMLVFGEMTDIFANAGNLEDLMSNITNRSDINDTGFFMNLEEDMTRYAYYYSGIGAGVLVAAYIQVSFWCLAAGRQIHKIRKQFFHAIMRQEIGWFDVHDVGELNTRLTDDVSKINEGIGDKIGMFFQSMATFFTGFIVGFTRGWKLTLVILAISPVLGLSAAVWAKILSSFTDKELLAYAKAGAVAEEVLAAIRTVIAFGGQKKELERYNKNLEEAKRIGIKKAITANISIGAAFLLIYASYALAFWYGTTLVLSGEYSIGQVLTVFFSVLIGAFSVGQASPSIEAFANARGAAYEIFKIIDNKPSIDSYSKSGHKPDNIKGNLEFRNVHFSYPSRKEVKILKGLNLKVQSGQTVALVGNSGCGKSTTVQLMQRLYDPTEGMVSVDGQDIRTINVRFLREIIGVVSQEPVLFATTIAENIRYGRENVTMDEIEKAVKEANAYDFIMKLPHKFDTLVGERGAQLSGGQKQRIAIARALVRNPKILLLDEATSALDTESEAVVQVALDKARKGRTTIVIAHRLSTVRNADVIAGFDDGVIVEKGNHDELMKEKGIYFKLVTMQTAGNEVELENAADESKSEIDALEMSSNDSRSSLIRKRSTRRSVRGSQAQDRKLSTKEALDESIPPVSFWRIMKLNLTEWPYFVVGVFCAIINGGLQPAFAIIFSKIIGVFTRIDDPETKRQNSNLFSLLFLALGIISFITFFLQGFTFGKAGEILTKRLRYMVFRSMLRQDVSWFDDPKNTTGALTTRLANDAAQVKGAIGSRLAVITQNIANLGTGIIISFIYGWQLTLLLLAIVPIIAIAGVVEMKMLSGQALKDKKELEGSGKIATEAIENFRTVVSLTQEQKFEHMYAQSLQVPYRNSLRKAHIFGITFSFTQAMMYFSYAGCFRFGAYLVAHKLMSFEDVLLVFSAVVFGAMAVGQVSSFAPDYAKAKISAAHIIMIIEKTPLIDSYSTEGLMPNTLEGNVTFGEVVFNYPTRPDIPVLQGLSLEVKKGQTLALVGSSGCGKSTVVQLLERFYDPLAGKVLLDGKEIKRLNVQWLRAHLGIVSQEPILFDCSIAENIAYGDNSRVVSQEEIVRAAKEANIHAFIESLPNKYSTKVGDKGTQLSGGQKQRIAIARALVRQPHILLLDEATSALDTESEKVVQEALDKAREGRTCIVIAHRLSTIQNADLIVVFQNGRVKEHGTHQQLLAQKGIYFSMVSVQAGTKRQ
Method: (§1) The efflux phase or incubation was 30 min in all cases. The average number of cells per assay was 10,000.
(§2) CR1R12 cell line, provided by Dr. Alan Senior (Univ. of Rochester), was maintained in complete α-minimum essential medium (α-MEM) supplemented with 10% FBS, penicillin/streptomycin (50 units/50 μg/ml) in a 5% CO2-95% air atmosphere at 37° C. Colchicine (0.5 μg/ml) was added to the culture medium. Cells were grown to 80-90% confluency and treated with trypsin-EDTA before subculturing. The NIH 3T3 G185 cell line presenting the gene product of human MDR1 was licensed from NIH and maintained in DMEM.
(§3) Fluorescence measurements of individual cells were performed using a Becton-Dickinson FACScalibur fluorescence-activated cell sorter (San Jose, Calif.), equipped with an ultraviolet argon laser (excitation at 488 nm, emission at 530/30 and 570/30 nm band-pass filters). Analysis was gated to include single cells on the basis of forward and side light-scatter and was based on acquisition of data from 10,000 cells. […] A direct functional assay for the P-gp efflux pump in CR1R12 cells was performed with the flow cytometer (Wang et al., 2000).
(§4) Cell viability was assessed using exclusion of 0.4% trypan blue as well as propidium iodide staining. Dead cells in which propidium iodide was bound to double strands of DNA or RNA were detected in certain regions of the cytometry dot plots and not included in the final data calculations.
(§5) The DNR fluorescence intensity of individual cells was recorded as histograms. The mean fluorescence intensity of 10,000 cells was used for comparison among different conditions. Vanadate was selected as a positive control to normalize the measurements because it can maximally inactivate the P-gp efflux pump. Relative fluorescence was used for quantitation and comparison among different compounds. The relative fluorescence (% inactivation) represents a ratio obtained through the following formula: the geometric mean fluorescence of a discrete sample divided by the geometric mean fluorescence in the presence of 5 mM vanadate, times 100, or expressed as [formula]
The target of a further series is P-gp (human MDR1) (Homo sapiens, UniProt P08183). The series is described as follows: in vitro.
The next series has as its target P-gp (Cricetulus griseus, UniProt P21448). The series can be described thus: Retention of rhodamine 123 (Rho), fluorescent P-gp substrate, in cells.
In series [3] the target is T2, P-gp efflux pump in CR1R12 cells (Cricetulus griseus, UniProt P21448). The note with it: compared with verapamil.
T2 sequence (P21448 whole entry): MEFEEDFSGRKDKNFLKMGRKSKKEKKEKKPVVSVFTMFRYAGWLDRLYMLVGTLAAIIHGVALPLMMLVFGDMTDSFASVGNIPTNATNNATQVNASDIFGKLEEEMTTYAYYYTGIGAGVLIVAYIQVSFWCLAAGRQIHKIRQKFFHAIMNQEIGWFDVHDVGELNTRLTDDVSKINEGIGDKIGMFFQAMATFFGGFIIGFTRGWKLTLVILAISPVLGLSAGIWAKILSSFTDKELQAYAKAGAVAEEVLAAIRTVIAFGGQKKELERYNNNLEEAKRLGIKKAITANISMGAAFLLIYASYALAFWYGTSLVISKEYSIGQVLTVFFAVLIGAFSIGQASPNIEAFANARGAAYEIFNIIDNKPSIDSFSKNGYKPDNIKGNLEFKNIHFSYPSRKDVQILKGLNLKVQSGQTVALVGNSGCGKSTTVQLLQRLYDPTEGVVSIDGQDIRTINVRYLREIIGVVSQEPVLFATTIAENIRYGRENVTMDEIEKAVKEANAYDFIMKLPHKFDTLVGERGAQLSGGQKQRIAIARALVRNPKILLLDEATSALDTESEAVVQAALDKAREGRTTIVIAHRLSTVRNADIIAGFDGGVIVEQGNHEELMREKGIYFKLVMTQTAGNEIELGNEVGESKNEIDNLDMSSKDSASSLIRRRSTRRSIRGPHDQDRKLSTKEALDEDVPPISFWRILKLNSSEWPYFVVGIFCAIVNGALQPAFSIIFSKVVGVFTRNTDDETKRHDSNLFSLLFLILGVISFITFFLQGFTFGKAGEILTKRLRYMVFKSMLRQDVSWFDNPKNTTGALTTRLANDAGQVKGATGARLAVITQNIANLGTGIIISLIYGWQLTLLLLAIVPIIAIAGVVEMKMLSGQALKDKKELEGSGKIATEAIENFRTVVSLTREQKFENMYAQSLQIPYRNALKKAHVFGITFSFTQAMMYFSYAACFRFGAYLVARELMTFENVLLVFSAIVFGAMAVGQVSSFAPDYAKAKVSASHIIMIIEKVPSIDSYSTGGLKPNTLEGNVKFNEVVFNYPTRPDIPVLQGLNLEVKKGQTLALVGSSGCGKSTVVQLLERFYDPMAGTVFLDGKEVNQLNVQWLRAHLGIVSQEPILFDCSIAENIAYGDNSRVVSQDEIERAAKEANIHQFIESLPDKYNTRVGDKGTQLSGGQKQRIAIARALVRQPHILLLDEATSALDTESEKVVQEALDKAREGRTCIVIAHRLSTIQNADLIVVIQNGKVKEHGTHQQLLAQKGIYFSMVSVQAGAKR
Method: (§6) The efflux phase or incubation was 30 min in all cases. The average number of cells per assay was 10,000. The function for the line through the data is the Hill equation: v=VmaxSn/(K′+Sn). The parameters IC50 and the Hill coefficient along with the standard deviation are shown on the respective graphs.
(§7) CR1R12 cell line, provided by Dr. Alan Senior (Univ. of Rochester), was maintained in complete α-minimum essential medium (α-MEM) supplemented with 10% FBS, penicillin/streptomycin (50 units/50 μg/ml) in a 5% CO2-95% air atmosphere at 37° C. Colchicine (0.5 μg/ml) was added to the culture medium. Cells were grown to 80-90% confluency and treated with trypsin-EDTA before subculturing.
(§8) Fluorescence measurements of individual cells were performed using a Becton-Dickinson FACScalibur fluorescence-activated cell sorter (San Jose, Calif.), equipped with an ultraviolet argon laser (excitation at 488 nm, emission at 530/30 and 570/30 nm band-pass filters). […]
as §4
(§9) The DNR fluorescence intensity of individual cells was recorded as histograms. […]
Series [4] deals with T2, P-gp efflux pump in CR1R12 cells. The series is described as follows: cell-based.
Method: as §6, §7, §8, §4, §9
Series [5] addresses T1, gene product of human MDR1 (P-gp) in NIH 3T3 G185 cells. Particulars: IC50 G185 vs IC50 CR1R12.
Method: as §1, §2, §3, §4, §5

Structures are written as SMILES. Where two headings read alike, the source gives them in different places.

The values below come from patent publication US6703400B2, “Methods for treating multidrug resistance” (Schering Corporation, priority 2001, dated 2004).

A word on the IC50: it is the midpoint of a concentration-inhibition curve. A lower IC50 goes with inhibition by little substance.

MDR1 gene product transport enzyme (P-gp) in CR1R12 cell membranes, sequence (P21448 whole entry): as above
P-gp, sequence (P21448 whole entry): as above
Method for P-gp (human MDR1): as §1, §2, §3, §4, §5

Consider `COc1cccc2c1C(=O)c1c(O)c3c(c(O)c1C2=O)C[C@@](O)(C(C)=O)C[C@@H]3O[C@H]1C[C@H](N)[C@H](O)[C@H](C)O1` [Daunorubicin, reference compound], for which the Vmax % control in series [1] (ATP hydrolysis, Table 1) came out at 170 % control.
On to `CC(=O)[C@H]1CC[C@H]2[C@@H]3CCC4=CC(=O)CC[C@]4(C)[C@H]3CC[C@]12C` [Progesterone, reference compound], for which the Vmax % control in series [1] (ATP hydrolysis, Table 1) was determined as 236 % control.
For `C=C[C@H]1C[N@@]2CC[C@H]1C[C@@H]2[C@@H](O)c1ccnc2ccc(OC)cc12` [Quinidine, quinidine, reference compound], the Vmax % control in series [1] stood at 239 % control.
Consider `NC(=O)N1CCC(CC(=O)N2CCC(C3c4ncc(Br)cc4CCc4cc(Cl)cc(Br)c43)CC2)CC1` (stereo not drawn) [SCH66336], for which the IC50 in series [2] was approximately 3 µM; against P-gp it was approximately 11 µM; in series [4] it was approximately 9 µM. Further, the “effect on rate of ATP hydrolysis relative to baseline rate” value in series [1] was “concentration-dependent decrease”. In addition, the Vmax in series [1] (ATP hydrolysis, Example B results text) is approximately 28 % baseline; in series [1] (ATP hydrolysis, FIG. 2 legend), 28 % of control. At P-gp (human MDR1), this compound yielded an IC50 at 30 min of less than 3 µM. Moreover, the “extent of inhibition of DNR transport” value in series [3] is reported as “exceeding that of verapamil”. In addition, in series [5], the “potency in G185 cells relative to CR1R12 cell line” value was “three times as potent”.
